Experimental data as given in patent US5166374A, “Bile acid derivatives, processes for the preparation thereof and pharmaceutical compositions containing them” (Giuliani S.p.A., priority 1989, dated 1992).
Converted amounts (≈) assume the structure as drawn. “Also recorded” adds a separate entry of the source. Where two headings read alike, the source gives them in different places.

How the values were obtained:
[1] = tested on: bile flow; assay: choleretic effect after i.v. or i.d. administration; format: in vivo
[2] = critical micellar pH (CMpH); format: physicochemical
Procedure: (§1) were evaluated according to conventional methods. Critical micellar concentration.

[3] = lipophilicity (K' from retention times on C18 HPLC); format: physicochemical; conditions: for rK' C-18 (relative values): Table III
Description: K' = calculated from retention times (t) on C18 HPLC according to
where to = time of unretained solvent, under the following

[4] = tested on: bile flow and biliary secretion; assay: effect on bile flow and biliary lipid secretion when administered i.v. to rat; format: in vivo; conditions: for SMAB (mean maximum biliary secretion) / SMFL (mean maximum biliary lipid secretion) / SMVo (mean maximum bile flow) / SMxol (mean maximum biliary lipid secretion): rat, i.v., Table II
Description: Effect of 24-ISOP on bile flow and biliary
SVo = mean maximum bile flow.
SM = mean maximum biliary lipid secretion.

[5] = intestinal absorption, biliary recovery and metabolism after intraduodenal administration; format: in vivo
[6] = critical micellar concentration (CMC), detergency; format: physicochemical
Procedure: -critical micellar concentration (CMC) or "detergency",
as §1
comparison with UDCA, GUDCA and TUDCA

[7] = solubility in water; format: physicochemical; conditions: for solubility: water
[8] = acidity constant (pKa); format: physicochemical
Procedure: as §1

[9] = liver uptake, biliary secretion and metabolism after intravenous administration; format: in vivo
[10] = Table I, calculated from retention times on C18 HPLC, CH3OH/KH2PO4 0.01 M 130/70 v/v, pH = 7, read-out: K' (converted)

| Structure (SMILES) | SMAB (mean maximum biliary secretion) [4] | SMFL (mean maximum biliary lipid secretion) [4] | SMVo (mean maximum bile flow) [4] | SMxol (mean maximum biliary lipid secretion) [4] | CMC ([6]; Table I) | CMC ([6]; Table III) | rK' C-18 (relative values) [3] | solubility (in words) [7] | chromatographic logD [3, 10] | further results |
| --- | --- | --- | --- | --- | --- | --- | --- | --- | --- | --- |
| C[C@H](CCC(=O)CCC(=O)O)[C@H]1CC[C@H]2[C@@H]3[C@@H](O)C[C@@H]4C[C@H](O)CC[C@]4(C)[C@H]3CC[C@]12C [Example 24-ISOP, 3α, 7β-dihydroxy-24-oxo-5β-cholan-27-oic acid] | 2.62 µmol/min/kg | 0.21 µmol/min/kg | 5.22 mL/h/kg | 0.020 µmol/min/kg | 9 mM |  |  |  |  | choleretic effect [1]: high choleretic effect, higher than that of UDCA; critical micellar pH (in words) [2]: low critical micellar pH; also recorded: soluble when present in micellar form at a pH lower than UDCA (low CMpH); chromatographic logD ([3]; c18 hplc, ch3oh/kh2po4, pH 7): 0.326; effect on bile flow (in words) ([4]; intravenous): great effect on bile flow, higher than that of UDCA and its conjugated forms; transport and secretion of cholesterol and phospholipids (in words) ([4]; intravenous): no significative differences; metabolites ([5]; in vivo): no major metabolites are present; recovery in bile ([5]; intraduodenal): significantly higher than that of glycoursodeoxycholic and similar to UDCA and TUDCA; solubility ([7]; Solubility): 20 µM (≈ 8.97 µg/mL); pKa ([8]; pKa value): 4.2; disappearance from bile ([9]; in vivo): disappears from bile with a kinetic similar to conjugate forms of UDCA and faster than UDCA; kinetic of the biliary secretion ([9]; in vivo, iv): very fast in comparison with UDCA and more similar to tauroursodeoxycholic acid; metabolites / conjugation ([9]; intravenous): no significant metabolites are present; recovery in bile ([9]; intravenous): completely recovered in bile with a rapid kinetic |
| C[C@H](CCC(=O)O)[C@H]1CC[C@H]2[C@@H]3[C@@H](O)C[C@@H]4C[C@H](O)CC[C@]4(C)[C@H]3C[C@H](O)[C@]12C [UCA, ursocholic] |  |  |  |  |  | 60 mM |  |  |  |  |
| C[C@H](CCC(=O)CCC(=O)O)[C@H]1CC[C@H]2[C@@H]3[C@@H](O)C[C@@H]4C[C@H](O)CC[C@]4(C)[C@H]3C[C@H](O)[C@]12C [Example 24-PUCA, 3α, 7β, 12α-Trihydroxy-24-oxo-5β-cholan-27-oic acid] |  |  |  |  |  | 28 mM | 0,20 | very soluble also in protonated form |  | critical micellar pH (in words) [2]: low CMpH value; lipophilicity (in words) [3]: intermediate between UCA and UDCA; CMC / detergency (in words) [6]: mild detergency; water solubility relative to UDCA and 24-PUDCA [7]: about 100 times; solubility ([7]; water solubility): 1800 µM (≈ 836 µg/mL); pKa (in words) [8]: lower to than that of the natural analogues UCA and UDCA and similar to that of 24-PUDCA; pKa ([8]; pKa): 3.85 |
| C[C@H](CCC(=O)CCC(=O)O)[C@H]1CC[C@H]2[C@@H]3[C@@H](O)C[C@@H]4C[C@H](O)CC[C@]4(C)[C@H]3CC[C@]12C [Example 24-PUDCA] |  |  |  |  |  | 9 mM | 0,44 |  |  | solubility ([7]; water solubility): 13 µM (≈ 5.83 µg/mL); pKa ([8]; pKa): 3.9 |
| C[C@H](CCC(=O)NCCS(=O)(=O)O)[C@H]1CC[C@H]2[C@@H]3[C@@H](O)C[C@@H]4C[C@H](O)CC[C@]4(C)[C@H]3CC[C@]12C [TUDCA, tauroursodeoxycholic acid] | 3.40 µmol/min/kg | 0.18 µmol/min/kg | 2.16 mL/h/kg | 0.014 µmol/min/kg | 8 mM |  |  |  | -0.00877 |  |
| C[C@H](CCC(=O)NCC(=O)O)[C@H]1CC[C@H]2[C@@H]3[C@@H](O)C[C@@H]4C[C@H](O)CC[C@]4(C)[C@H]3CC[C@]12C [GUDCA, glycoursodeoxycholic acid] | 2.10 µmol/min/kg | 0.39 µmol/min/kg | 2.4 mL/h/kg | 0.028 µmol/min/kg | 12 mM |  |  | low solubility at low pH | 0.0253 | solubility ([7]; Table I, read-out: Solubility): 3 µM (≈ 1.35 µg/mL) |
| C[C@H](CCC(=O)O)[C@H]1CC[C@H]2[C@@H]3[C@@H](O)C[C@@H]4C[C@H](O)CC[C@]4(C)[C@H]3CC[C@]12C [UDCA, ursodeoxycholic, reference compound] | 3.02 µmol/min/kg | 0.227 µmol/min/kg | 3.6 mL/h/kg | 0.022 µmol/min/kg | 19 mM | 19 mM | 0,4 | low solubility at low pH | 0.563 | solubility ([7]; Table III, read-out: water solubility): 19 µM (≈ 7.46 µg/mL); solubility ([7]; Table I, read-out: Solubility): 9 µM (≈ 3.53 µg/mL); pKa ([8]; Acidity constant, read-out: pKa value): 6; pKa ([8]; Table I): 5.06; pKa ([8]; Table III): 5; metabolites / conjugation ([9]; in vivo, iv): completely transformed into its conjugated form, tauroursodexycholic acid and to less extent into glycoursodeoxycholic acid |
